How the values were obtained:
Format in all cases: functional
[1] = target: T1, Sodium- and chloride-dependent GABA transporter 3 (Homo sapiens, UniProt P48066); test: Compound was tested for its ability to inhibit uptake of [3H]- GABA by cloned human GAT-3 transporter
T1 sequence (P48066 whole entry): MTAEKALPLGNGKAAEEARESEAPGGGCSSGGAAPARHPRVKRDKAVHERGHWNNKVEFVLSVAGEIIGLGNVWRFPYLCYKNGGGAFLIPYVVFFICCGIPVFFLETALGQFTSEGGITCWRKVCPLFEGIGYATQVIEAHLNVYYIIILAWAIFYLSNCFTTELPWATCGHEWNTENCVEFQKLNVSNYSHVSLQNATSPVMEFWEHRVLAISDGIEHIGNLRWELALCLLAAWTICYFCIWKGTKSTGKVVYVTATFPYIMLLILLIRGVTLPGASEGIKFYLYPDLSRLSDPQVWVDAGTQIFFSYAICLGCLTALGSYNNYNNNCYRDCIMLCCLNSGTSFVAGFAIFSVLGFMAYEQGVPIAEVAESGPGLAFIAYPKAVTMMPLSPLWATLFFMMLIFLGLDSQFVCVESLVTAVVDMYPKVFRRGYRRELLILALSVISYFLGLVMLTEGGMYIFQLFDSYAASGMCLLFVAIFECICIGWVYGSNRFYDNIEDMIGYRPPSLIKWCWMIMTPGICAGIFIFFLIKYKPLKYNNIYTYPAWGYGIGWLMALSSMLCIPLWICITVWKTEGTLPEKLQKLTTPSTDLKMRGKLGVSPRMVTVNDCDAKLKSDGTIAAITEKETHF

[2] = target: T2, Sodium- and chloride-dependent betaine transporter (Homo sapiens, UniProt P48065); test: Compound was tested for its ability to inhibit uptake of [3H]- GABA by cloned human BGT-1 transporter
T2 sequence (P48065 whole entry): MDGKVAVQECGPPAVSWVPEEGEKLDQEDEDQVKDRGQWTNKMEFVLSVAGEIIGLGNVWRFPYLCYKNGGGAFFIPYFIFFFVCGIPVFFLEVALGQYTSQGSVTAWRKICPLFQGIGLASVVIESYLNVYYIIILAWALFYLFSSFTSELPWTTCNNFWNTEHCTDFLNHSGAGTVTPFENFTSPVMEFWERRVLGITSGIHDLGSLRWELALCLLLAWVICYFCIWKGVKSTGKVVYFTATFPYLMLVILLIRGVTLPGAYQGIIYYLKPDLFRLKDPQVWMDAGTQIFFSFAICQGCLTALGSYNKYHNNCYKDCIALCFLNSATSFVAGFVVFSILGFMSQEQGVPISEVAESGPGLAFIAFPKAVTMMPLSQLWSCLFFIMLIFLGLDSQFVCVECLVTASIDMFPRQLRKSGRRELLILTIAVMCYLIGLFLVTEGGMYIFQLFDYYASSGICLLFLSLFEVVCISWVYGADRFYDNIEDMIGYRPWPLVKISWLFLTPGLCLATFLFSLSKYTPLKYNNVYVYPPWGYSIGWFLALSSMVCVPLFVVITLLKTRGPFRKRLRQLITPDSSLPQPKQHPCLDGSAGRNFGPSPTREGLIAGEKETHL

[3] = target: T3, Sodium- and chloride-dependent GABA transporter 2 (Rattus norvegicus, UniProt P31646); test: Compound was tested for its ability to inhibit uptake of [3H]- GABA by cloned rat GAT-2 transporte
T3 sequence (P31646 whole entry): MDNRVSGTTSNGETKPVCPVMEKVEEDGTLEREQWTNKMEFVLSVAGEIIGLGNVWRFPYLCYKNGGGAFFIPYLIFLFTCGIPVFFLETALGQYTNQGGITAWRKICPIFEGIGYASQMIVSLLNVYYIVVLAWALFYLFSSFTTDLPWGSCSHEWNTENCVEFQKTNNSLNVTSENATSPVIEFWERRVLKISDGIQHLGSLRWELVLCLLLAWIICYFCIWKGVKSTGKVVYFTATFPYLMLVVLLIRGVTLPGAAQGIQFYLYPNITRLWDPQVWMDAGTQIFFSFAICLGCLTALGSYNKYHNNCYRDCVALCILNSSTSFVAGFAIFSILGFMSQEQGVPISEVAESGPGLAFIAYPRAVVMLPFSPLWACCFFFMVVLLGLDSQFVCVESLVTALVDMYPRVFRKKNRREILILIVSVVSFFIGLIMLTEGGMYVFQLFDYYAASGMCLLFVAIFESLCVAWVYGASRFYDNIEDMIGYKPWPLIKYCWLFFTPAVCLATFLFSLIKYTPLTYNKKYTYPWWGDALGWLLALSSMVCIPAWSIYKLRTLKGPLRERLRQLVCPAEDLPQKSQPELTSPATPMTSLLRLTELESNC

[4] = target: Sodium- and chloride-dependent GABA transporter 1 (Homo sapiens, UniProt P30531); test: Compound was tested for its ability to inhibit uptake of [3H]- GABA by cloned human GAT-1 transporter
Chain of Sodium- and chloride-dependent GABA transporter 1 (P30531 whole entry): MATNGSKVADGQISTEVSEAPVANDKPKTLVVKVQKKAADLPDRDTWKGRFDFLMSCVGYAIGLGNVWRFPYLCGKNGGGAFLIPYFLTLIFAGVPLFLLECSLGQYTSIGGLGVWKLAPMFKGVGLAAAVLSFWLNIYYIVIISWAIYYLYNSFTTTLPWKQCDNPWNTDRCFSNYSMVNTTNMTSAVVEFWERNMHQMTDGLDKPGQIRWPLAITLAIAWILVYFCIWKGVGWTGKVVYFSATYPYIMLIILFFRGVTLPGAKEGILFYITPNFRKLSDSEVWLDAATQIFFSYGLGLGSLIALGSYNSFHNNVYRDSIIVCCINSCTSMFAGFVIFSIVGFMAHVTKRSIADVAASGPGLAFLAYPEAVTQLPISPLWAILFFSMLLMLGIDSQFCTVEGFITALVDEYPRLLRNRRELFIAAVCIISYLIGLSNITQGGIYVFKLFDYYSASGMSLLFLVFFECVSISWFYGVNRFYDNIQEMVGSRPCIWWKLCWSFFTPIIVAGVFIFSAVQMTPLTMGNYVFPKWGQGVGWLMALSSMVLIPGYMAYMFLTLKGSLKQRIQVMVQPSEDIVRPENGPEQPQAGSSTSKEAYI

Row | Compound | IC50 [1] [µM] | IC50 [2] [µM] | IC50 [3] [µM] | IC50 [4] [µM]
1 | O=C(O)[C@H]1CCC2CC(=C(c3ccccc3)c3ccccc3)CCN2C1 (stereo partly specified) | 876 | 335 | 757 | 809
2 | O=C(O)[C@H]1CCC2C[C@H](C(c3ccccc3)c3ccccc3)CCN2C1 (stereo partly specified) | 782 | 809 | 669 | 270
3 | O=C(O)[C@@H]1CCC2C[C@H](C(c3ccccc3)c3ccccc3)CCN2C1 (stereo partly specified) | 2040 | 2900 | 477 | 632
4 | O=C(O)[C@@H]1CCC2CC(=C(c3ccccc3)c3ccccc3)CCN2C1 (stereo partly specified) | 3230 | 436 | 810 | 270
